Here are results for 19 molecules from patent publication US12378250B2, “Tricyclic compound as IRAK4 inhibitor” (KOREA RESEARCH INSTITUTE OF CHEMICAL TECHNOLOGY, priority 2018, dated 2025).

This assay addresses T1, IRAK4 enzyme (Homo sapiens, UniProt Q9NWZ3).
T1 sequence (Q9NWZ3 1-460): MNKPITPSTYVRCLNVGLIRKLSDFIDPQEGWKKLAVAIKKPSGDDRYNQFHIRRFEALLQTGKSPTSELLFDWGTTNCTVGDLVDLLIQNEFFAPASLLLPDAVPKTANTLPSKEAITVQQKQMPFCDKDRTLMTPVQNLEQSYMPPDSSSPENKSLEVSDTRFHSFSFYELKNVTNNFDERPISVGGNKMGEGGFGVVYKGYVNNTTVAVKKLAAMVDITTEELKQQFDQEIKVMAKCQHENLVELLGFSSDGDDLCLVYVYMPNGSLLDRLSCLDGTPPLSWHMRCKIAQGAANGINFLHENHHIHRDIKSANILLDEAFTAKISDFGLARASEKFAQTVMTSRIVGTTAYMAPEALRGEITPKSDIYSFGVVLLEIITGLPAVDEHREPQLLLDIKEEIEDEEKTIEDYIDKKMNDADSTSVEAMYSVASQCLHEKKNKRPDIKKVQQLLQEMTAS
The experiment in a line: IRAK4 enzyme inhibition degree (bead-based kinase assay, peptide substrate BMKC-2, 100 μM ATP). Format: biochemical. The settings on record: for inhibition at 1 µM: compound 1 μM. The protocol:
2.5 μl of a compound diluted to 4-fold of a final concentration was put into a 384-well white plate (low volume). 2.5 μl of 0.4 ng/μl IRAK4 enzyme was added thereto, and the resulting mixture was totally reacted for 10 minutes. 5 μl of a mixed liquid of a 6 μM peptide substrate (BMKC-2) and 100 μM ATP was added thereto, the resulting mixture was reacted at room temperature for 60 minutes, then 2.5 μl of 10 mM EDTA was added thereto, and the resulting mixture was reacted again for 10 minutes. 40 nM anti-phospho Thr antibody was aliquoted to 2.5 μl each, 5 μl of a mixed solution of a 160 μl/ml acceptor bead and a donor bead was added thereto, and then the resulting mixture was reacted at room temperature for 60 minutes. Fluorescence signals were measured using a bead experimental apparatus (Fusion alpha-FP Microplate Reader, Perkin Elmer Inc.).
From the detected signal, an activity inhibition rate [% inhibition degree=(the average value of a compound−the average value of a negative control)/(the average value of a positive control−the average value of a negative control)×100] was calculated, and is shown in [Table 1]. Further, a % inhibition degree of the compound at each concentration was obtained, and then a 50% inhibition concentration (IC50 value) was analyzed by a non-linear regression analysis.

The structures appear in SMILES notation.

On to `CS(=O)(=O)N1CCC(n2cc(-c3ccc4[nH]c5ncnc(N[C@H]6CC[C@H](N7CCOCC7)CC6)c5c4c3)cn2)CC1` [Compound 6aas, 6-(1-(1-(methylsulfonyl)piperidin-4-yl)-1H-pyrazol-4-yl)-N-(trans-4-morpholinocyclohexyl)-9H-pyrimido[4,5-b]indole-4-amine], for which inhibition was half-maximal at 0.05 µM (IC50) and the inhibition (usually the relative decrease from the control value, in per cent) at 1 µM came to 79%.

On to `Cn1cc(-c2ccc3[nH]c4ncnc(NCCCN5CCOCC5)c4c3c2)cn1` [Compound 6aea, 6-(1-methyl-1H-pyrazol-4-yl)-N-(3-morpholinopropyl)-9H-pyrimido[4,5-b]indole-4-amine], for which the IC50 (in general, the point on the concentration scale where inhibition reaches its midpoint) came to 1.53 µM and at 1 µM the inhibition was 34%.

`c1nc(N[C@H]2CC[C@H](N3CCOCC3)CC2)c2c(n1)[nH]c1ccc(-c3nnc4n3CCC4)cc12` [Compound 6bad, 6-(6,7-dihydro-5H-pyrrolo[2,1-c][1,2,4]triazol-3-yl)-N-(trans-4-morpholinocyclohexyl)-9H-pyrimido[4,5-b]indole-4-amine] gave an IC50 of 0.928 µM and an inhibition at 1 µM of 52%.

Take `Cc1nnc(-c2ccc3[nH]c4ncnc(N[C@H]5CC[C@H](N6CCOCC6)CC5)c4c3c2)o1` [Compound 6bae, 6-(5-methyl-1,3,4-oxadiazol-2-yl)-N-(trans-4-morpholinocyclohexyl)-9H-pyrimido[4,5-b]indole-4-amine]: the 50% inhibitory concentration (IC50) came to 0.008 µM and the inhibition at 1 µM came to 94%.

The molecule `N#Cc1cc(F)cc(-c2ccc3[nH]c4ncnc(N[C@H]5CC[C@H](N6CCOCC6)CC5)c4c3c2)c1` [Compound 6aap, 3-fluoro-5-(4-((trans-4-morpholinocyclohexyl)amino)-9H-pyrimido[4,5-b]indol-6-yl) benzonitrile] registered an IC50 of 0.78 µM and an inhibition at 1 µM of 56%.

Consider `CCOC(=O)c1ccc2[nH]c3ncnc(Nc4ccc(OC)cc4)c3c2c1` [Compound 5bc, ethyl 4-((4-methoxyphenyl)amino)-9H-pyrimido[4,5-b]indole-6-carboxylate], for which at 1 µM the inhibition was 9%.

Regarding `COC(=O)c1ccc2c(c1)[nH]c1nc(-c3cccc([N+](=O)[O-])c3)nc(N[C@H]3CC[C@H](N4CCOCC4)CC3)c12` [Compound 11b, methyl 4-((trans-4-morpholinocyclohexyl)amino)-2-(3-nitrophenyl)-9H-pyrimido[4,5-b]indole-7-carboxylate], the inhibition at 1 µM was found to be 10%.

`Cc1nnc(-c2ccc3[nH]c4ncnc(N[C@H]5CC[C@H](N6CCOCC6)CC5)c4c3c2)[nH]1` [Compound 6bab, 6-(5-methyl-4H-1,2,4-triazol-3-yl)-N-(trans-4-morpholinocyclohexyl)-9H-pyrimido[4,5-b]indole-4-amine]: the IC50 is 0.21 µM and testing at 1 µM gave an inhibition of 86%.

As to `Cn1cnnc1-c1ccc2[nH]c3ncnc(N[C@H]4CC[C@H](N5CCOCC5)CC4)c3c2c1` [Compound 6bac, 6-(4-methyl-4H-1,2,4-triazol-3-yl)-N-(trans-4-morpholinocyclohexyl)-9H-pyrimido[4,5-b]indole-4-amine], the IC50 was determined as 0.842 µM and the inhibition at 1 µM is 60%.

`O=c1[nH]nc(-c2ccc3[nH]c4ncnc(N[C@H]5CC[C@H](N6CCOCC6)CC5)c4c3c2)[nH]1` [Compound 6baf, 5-(4-((trans-4-morpholinocyclohexyl)amino)-9H-pyrimido[4,5-b]indol-6-yl)-2,4-dihydro-3H-1,2,4-triazole-3-one] registered an IC50 of 0.509 µM and an inhibition at 1 µM of 70%.

Regarding `CC(C)(C)OC(=O)N1CCC(n2cc(-c3ccc4[nH]c5ncnc(N[C@H]6CC[C@H](N7CCOCC7)CC6)c5c4c3)cn2)CC1` [Compound 6aaq, tert-butyl 4-(4-(4-((trans-4-morpholinocyclohexyl)amino)-9H-pyrimido[4,5-b]indol-6-yl)-1H-pyrazol-1-yl)piperidine-1-carboxylate], half-maximal inhibition (IC50) was put at 0.565 µM and the inhibition at 1 µM amounted to 59%.

In turn, `Cn1cc(-c2ccc3[nH]c4ncnc(OCCN5CCOCC5)c4c3c2)cn1` [Compound 6aha, 4-(2-((6-(1-methyl-1H-pyrazol-4-yl)-9H-pyrimido[4,5-b]indol-4-yl)oxy)ethyl)morpholine] registered an IC50 of 1.04 µM and an inhibition at 1 µM of 41%.

Molecule `c1nc(N[C@H]2CC[C@H](N3CCOCC3)CC2)c2c(n1)[nH]c1ccc(-c3nnc[nH]3)cc12` [Compound 6baa, N-(trans-4-morpholinocyclohexyl)-6-(4H-1,2,4-triazol-3-yl)-9H-pyrimido[4,5-b]indole-4-amine] displayed an IC50 of 0.308 µM and an inhibition at 1 µM of 70%.

The molecule `COC(=O)c1ccc2c(c1)[nH]c1ncnc(Nc3ccc(N4CCOCC4)cc3)c12` [Compound 5db, methyl 4-((4-morpholinophenyl)amino)-9H-pyrimido[4,5-b]indole-7-carboxylate] displayed an inhibition at 1 µM of less than 1%.

Consider `N#Cc1cncc(-c2ccc3[nH]c4ncnc(N[C@H]5CC[C@H](N6CCOCC6)CC5)c4c3c2)c1` [Compound 6aao, 5-(4-((trans-4-morpholinocyclohexyl)amino)-9H-pyrimido[4,5-b]indol-6-yl) nicotinonitrile], for which the IC50 was 0.063 µM and 1 µM produced 74% inhibition.

In turn, `Fc1cncc(-c2ccc3[nH]c4ncnc(N[C@H]5CC[C@H](N6CCOCC6)CC5)c4c3n2)c1` [Compound 23a, 6-(5-fluoropyridin-3-yl)-N-(trans-4-morpholinocyclohexyl)-9H-pyrido[2′,3′:4,5]pyrrolo[2,3-d]pyrimidin-4-amine] displayed an IC50 of 0.079 µM and an inhibition at 1 µM of 91%.

`c1nc(N[C@H]2CC[C@H](N3CCOCC3)CC2)c2c(n1)[nH]c1ccc(-c3cnn(C4CCNCC4)c3)cc12` [Compound 6aar, N-(trans-4-morpholinocyclohexyl)-6-(1-(piperidin-4-yl)-1H-pyrazol-4-yl)-9H-pyrimido[4,5-b]indole-4-amine] returned an IC50 of 0.137 µM and an inhibition at 1 µM of 78%.

`Cn1cc(-c2ccc3[nH]c4ncnc(NCCN5CCN(C(=O)OC(C)(C)C)CC5)c4c3c2)cn1` [Compound 6afa, tert-butyl 4-(2-((6-(1-methyl-1H-pyrazol-4-yl)-9H-pyrimido[4,5-b]indol-4-yl)amino)ethyl)piperazine-1-carboxylate] registered an IC50 of 1.05 µM and an inhibition at 1 µM of 36%.

`Cn1cc(-c2ccc3[nH]c4ncnc(NCCN5CCOCC5)c4c3c2)cn1` [Compound 6ada, 6-(1-methyl-1H-pyrazol-4-yl)-N-(2-morpholinoethyl)-9H-pyrimido[4,5-b]indole-4-amine] returned an IC50 of 0.861 µM and an inhibition at 1 µM of 53%.
